The subject of test [1] is CXCR4 and β2AR. As to the kind of experiment: Calcium flux in MDA-MB-231 cells endogenously expressing CXCR4 and β2AR, CXCL12 plus epinephrine. The format is cell-based. The conditions noted are these: 10 μM of each antagonist; 200 nM CXCL12, 10 μM epinephrine. The method, then: MDA-MB-231 cells endogenously expressing CXCR4 and β2AR, or transduced with adenoviruses encoding CXCR4 for overexpression were used for calcium flux. Cells were cultured for 2 days prior to running the assay and seeded at 8×10^4 cells/well in a 96-well black clear-bottom microplate. The following day, cells were stained with Cal-520 AM (AAT Bioquest) for 2 h at 37°C and treated with antagonists for 30 min followed by agonist stimulation. Intracellular calcium flux was measured using a Flexstation 3 microplate reader (Molecular Devices).

Test [2] has as its system circulating WBCs. Briefly: In vivo WBC mobilization to peripheral blood (CBC analysis). Details: species or system C57BL/6J mice.
Method: Studies were performed at a facility accredited by the Association for Assessment and Accreditation of Laboratory Animal Care and in strict accordance with the recommendations in the Guide for the Care and Use of Laboratory Animals of the National Institute of Health. […] C57BL/6J mice (female, 6–9 weeks old) were ordered from Jackson Laboratories and allowed to habituate for one week before handling. They were housed 5 per cage and had free access to food and water.
Mice were monitored daily and weighed prior to drug administration. Based on the body weight data, mice were randomized into groups using the randomization tool in Benchling Studies randomization software. PB was collected by submental bleeding (non-terminal) or cardiac puncture (terminal). For terminal blood collections, mice were placed in an induction chamber with 2.5–4% isoflurane and then a maintenance dose of 2–3% through a nose cone. A toe pinch on all four quadrants was applied to confirm the surgical plane of anesthesia. Upon completion of terminal blood collection from cardiac puncture, the mice were euthanized via cervical dislocation while still under the effects of isoflurane. Approximately 25 μL blood was used for CBC analysis and the remaining blood was processed for flow cytometry or colony forming unit (CFU) assay. For non-terminal submental bleeding, a 4mm lancet was used to puncture the linguofacialis vein under the chin. […] For the time-course of mobilization, each mouse was bled twice. Submental bleeding was performed at 0.5 h, 1 h or 2 h after the respective dosing and cardiac puncture was performed at 3 h, 4 h and 6 h post-dose.
Blood samples were processed for complete blood count (CBC) analysis using the Abaxis VetScan HM5 hematology analyzer (Abaxis), which reports 18-parameters including WBC, lymphocytes, neutrophils, monocytes, platelets, hemoglobin, RBC and morphology.
In test [3] the test system is circulating WBCs. As to conditions: mice, 5 mg/kg SC; cited from earlier work.
The test system of test [4] is U937 cells. Briefly: CXCL12-mediated transwell migration of U937 cells. The conditions noted are these: Homo sapiens, U-937, 24 h, read-out: IC50, blockade of CXCL12-mediated migration.
Method: (§1) Cells were allowed to migrate toward CXCL12 in the presence or absence of the antagonists for 4 h (MM.1S) or 24 h (U937) at 37°C. The migration of U937 cells was measured using PrestoBlue Cell Viability Reagent (Invitrogen). For MM.1S cell line, the migrated cells were counted by flow cytometry. The fluorescence intensity (560 nm/590 nm excitation/emission) was detected using a Varioskan LUX Multimode Microplate Reader.
MM.1S (A) or U937 (B) cells were
(§2) suspended in serum-free media containing 0.5% BSA at 5X106 cells/ml and 100 μl of cell
(§3) suspension was added to transwell insert. SDF-1/CXCL12 at the indicated concentrations in 800
(§4) μl of serum-free media containing 0.5% BSA was added to the lower chamber of the transwell.
(§5) The transwell insert with 100 μl cell suspension was put on the lower chamber very carefully
(U937) to allow cell migration.
In test [5] the test system is MM.1S cells. As to the kind of experiment: CXCL12-induced transwell migration of MM.1S cells. As to conditions: Homo sapiens, MM1.S, 4 h, read-out: IC50, blockade of CXCL12-induced migration.
Method: as §1
MM.1S (A) or U937 (B) cells were
as §2, §3, §4, §5
(U937) to allow cell migration.
The test system of test [6] is CD34+ cells. As to conditions: at least; cited from earlier work.

Read-outs that look alike come from different tables or passages of the source.

For the molecule `CC(C)NCC(O)COc1cccc2ccccc12` (stereo not drawn) [propranolol], the “inhibition of synergistic calcium flux induced by CXCL12 and epinephrine” value in test [1] is listed as “partially inhibited”.

As for `c1cc(CN2CCCNCCNCCCNCC2)ccc1CN1CCCNCCNCCCNCC1` [AMD3100], the “inhibition of synergistic calcium flux induced by CXCL12 and epinephrine” value in test [1] was “partially inhibited”. Also, the “increase in circulating WBCs compared to the vehicle” value in test [2] (1 hour post-drug, GPC-100 30 mg/kg IV, AMD3100 5 mg/kg SC, single injection) is 3 fold. In addition, the “time of peak mobilization” value is 2 h in test [2] (time-course 30 min to 6 hours post-drug, GPC-100 30 mg/kg IV, AMD3100 5 mg/kg SC) and 1 h in test [3]. The IC50 in test [4] came to 42 nM; in test [5], 80 nM.

B1: G-CSF: Granulocyte-colony stimulating factor; recombinant murine G-CSF in the mouse studies (protein, UniProt P09920 31-208, looked up)
Granulocyte …: VPLVTVSALPPSLPLPRSFLLKSLEQVRKIQASGSVLLEQLCATYKLCHPEELVLLGHSLGIPKASLSGCSSQALQQTQCLSQLHSGLCLYQGLLQALSGISPALAPTLDLLQLDVANFATTIWQQMENLGVAPTVQPTQSAMPAFTSAFQRRAGGVLAISYLQGFLETARLALHHLA
Consider B1, for which the “increase in WBC mobilization” value in test [2] (G-CSF 0.1 mg/kg SC BID days 2-6, propranolol 20 mg/kg IP 7 days, GPC-100 30 mg/kg IV or AMD3100 5 mg/kg SC day 7) is on record as 4.5 fold. Also, in test [6], the “MM patients in whom an optimal number of HSC is not mobilized” value is reported as 40–50%.
